Test results published in patent US20230271956A1, “AMIDE DERIVATIVES” (Merck Patent GmbH, priority 2020, published 2023).

Columns and labels:
[1] = target: T1, human rec ACSS2 (Homo sapiens, UniProt Q9NR19); assay: Biochemical activity ACSS2 assay (AMP-Glo); conditions: human recombinant ACSS2, AMP-Glo, 180 min at 37° C.
T1 construct: myc (C); purchased Origene
Method in brief: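 C-terminal myc-tagged human recombinant ACSS2 (1 nM) reacted with 100 µM ATP, 100 µM CoA and 500 µM acetate (final) in pH 7.5 Hepes buffer for 180 min at 37° C, compound in 10 concentrations from 30 µM. Released AMP detected by AMP-Glo luminescence. IC50 normalised to inhibitor-free reaction and 5 µM reference inhibitor.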

[2] = target: T2, ACSS2 (Homo sapiens, UniProt Q9NR19); assay: Cellular assay of 14C acetate incorporation into histones (IC50 ACSS2 cellular histone); format: cell-based; conditions: HCT-15 cells
T2 construct: endogenous fatty acid synthesis activity in the human HCT-15 cancer cell line; endogenous in cells; host or cells: HCT-15
Method in brief: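 Human HCT-15 cells preincubated 1 h with compound (0.25% DMSO final), then pulsed 3 h with 14C-acetate. Histones were acid-extracted (0.2 M HCl, overnight, 4° C) after Triton lysis in sodium-butyrate buffer; incorporated 14C counted by liquid scintillation (CPM) to give IC50.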

[3] = test system: CHO-K1 cells; assay: Micronucleus assay (MNT) in vitro; format: cell-based; parameters: key: A: negative, putative negative (micronuclei detected beyond threshold of 60% cyctotoxicity); B: positive; conditions: 24 hrs treatment, 0.2 µM to 100 µM
Description: The in vitro MNT assay is performed in CHO-K1 cells due to their stable and welI-characterized karyotype, high sensitivity and suitability for a high content imaging approach. They have a basal spontaneous micronucleus frequency of 3-4%.
24 hrs after plating CHO-K1 cells are treated with test compounds for 24 hrs (in duplicates; fixed concentration ranges from 0.2 µM to 100 µM in 2-fold dilution steps). After a medium change cells are incubated for 24 hrs with Cytochalasin B to block cytokinesis and are then fixed and nuclei / micronuclei visualized with a DNA stain. Images are acquired with the Molecular Devices high content imagers IXU or IXM and are analyzed with the dedicated MetaXpress software micronucleus module. Criteria for scoring of micronuclei (MN) are the following: • diameter of the MN should be less than ⅓ of the main nucleus • MN should be separated from or marginally overlap with main nucleus (= no blebs) • MN should have similar staining as the main nucleus At least 1000 binucleated cells are evaluated per treatment replicate. Mitomycin C is used as reference stimulator of micronucleus formation. Cytotoxicity is evaluated in parallel and defined by comparing total nuclei count in compound-treated samples to neutral control samples treated with vehicle only (1% DMSO) (100% cytotoxicity means all cells are dead or lost).
A test compound is regarded as POSITIVE if generation of micronuclei and exhibition of less than 60% cytotoxicity at the same concentration can be observed.
Compounds are scored only in the soluble concentration range. Experimental data of the compounds shown in Table 1 in the MNT assay are shown in Table 2 below and classified in the following groups: […]

[4] = target: T2, ACSS2; assay: Cellular assay of 14C acetate incorporation into fatty acids (IC50 ACSS2 cellular lipids); format: cell-based; conditions: HCT-15 cells
Description: This protocol describes a cellular assay capable to quantify endogenous fatty acid synthesis activity in the human HCT-15 cancer cell line following the incorporation of extracellularly administered radiolabeled ^14C acetate with a scintillation proximity based read out on extracted fatty acids.
HCT-15 cells were grown in RPMI 1640 (Gibco) supplemented with 2 mM glutamine, 1 mM sodium pyruvate 10 mM HEPES and 10 % FCS (heat-inactivated) passaged every 2-3 days to remain a subconfluent, vital culture. A working cell bank was prepared with each aliquot containing 1x10^7 viable cells. After thawing, these cells are dilute immediately 1:20 in pre-warmed (37° C.) culture medium. Cells are collected by centrifugation at 200 x g for 5 min, and the supernatant is replaced by 30 mL of fresh culture medium per aliquot to obtain a cell suspension containing 350000 cells/ml. From this cell suspension 100 µL are dispersed into each well of a collagen coated 96 well plate, (black, clear bottom, PS, F-bottom, Greiner) and culture for 24 h (37° C., 5% CO2). After incubation the culture medium is removed and the wells are washed once with 100 µL PBS++ (supplemented with Mg^2+/ Ca^2+, Gibco) and 50 µL assay medium (RPMI 1640 + 10 mM HEPES) are added to each well. Compounds serial dilutions are prepared from 10 mM stock solutions in DMSO using a fixed dilution factor (usually 1:3). After preparation of the dilution series in DMSO, the individual dilutions are further diluted in the assay medium. This working dilution is prepared such, that the concentration is 7x of the final concentration in the assay. The maximal DMSO concentration in the final assay is 0.1%.
To each well 10 µL compound working dilution or DMSO blank are added and the cells are cultured for 2 h (37° C., 5% CO2). Then 10 µL AlamarBlue reagent (Invitrogen) containing 14 µCi/mL ^14C-acetate (Perkin Elmer) are added to each well (70 µl total volume) and cells are again cultured for 2 h. Cell viability is verified by measuring the AlamarBlue fluorescence (Tecan Safire, ex: 544 nm / em: 590 nm). After incubation the culture medium is removed and the wells are carefully washed once with cold 100 µL PBS++. For cell lysis and fatty acid recovery 50 µl 0.1 M NaOH and 0.1 % Triton-X100 are added per well. The plate is sealed with PlateLoc (clear peelable heat seal, Agilent) and incubate at 70° C. for 16-24 h. After cooling to room temperature, the plates are centrifuged for 1 min at 1000 rpm and the plate seals are removed. For acidification 150 µL 0.1 M HCl are added to each well, mixed and 150 µL of the mixture are transferred into a 96 well FlashPlate (Perkin Elmer). The plates are sealed with TopSeaI-a (Perkin Elmer). To allow for the fatty acid binding to the well surfaces the plates are incubate for 4 h at 70° C. After cooling to room temperature, the plates are centrifuged for 1 min at 1000 rpm and stored for 0.5-2 h at room temperature in the dark. Radioactivity from ^14C incorporation into fatty acids in the wells is measured as CPM count in a MicroBeta scintillation counter (Perkin Elmer).

T2 sequence (Q9NR19 whole entry): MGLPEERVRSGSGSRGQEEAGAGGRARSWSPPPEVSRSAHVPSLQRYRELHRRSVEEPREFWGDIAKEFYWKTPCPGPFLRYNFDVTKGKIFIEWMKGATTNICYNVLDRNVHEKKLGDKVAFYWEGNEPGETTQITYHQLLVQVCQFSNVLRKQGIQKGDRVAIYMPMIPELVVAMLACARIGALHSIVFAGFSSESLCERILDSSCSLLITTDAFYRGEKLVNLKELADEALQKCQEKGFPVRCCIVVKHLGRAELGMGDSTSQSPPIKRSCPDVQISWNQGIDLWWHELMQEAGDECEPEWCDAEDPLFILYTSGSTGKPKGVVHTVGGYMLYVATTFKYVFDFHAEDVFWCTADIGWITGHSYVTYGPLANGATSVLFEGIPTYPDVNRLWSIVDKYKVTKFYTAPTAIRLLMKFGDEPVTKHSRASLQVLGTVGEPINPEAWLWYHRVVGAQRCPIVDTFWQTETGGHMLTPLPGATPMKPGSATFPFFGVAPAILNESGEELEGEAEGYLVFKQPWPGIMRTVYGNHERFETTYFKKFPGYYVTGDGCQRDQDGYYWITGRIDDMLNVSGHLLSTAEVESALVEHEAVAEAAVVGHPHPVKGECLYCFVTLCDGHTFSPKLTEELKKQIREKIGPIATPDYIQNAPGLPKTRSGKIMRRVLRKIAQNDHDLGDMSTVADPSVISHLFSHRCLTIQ
T1 sequence (Q9NR19 whole entry): as above

SMILES	IC50 [1] [nM]	IC50 [2] [nM]	IC50 [4] [nM]	MNT [3]
CCc1c(C(O)(c2ccccc2)c2ccccn2)nc2cc(OC)c(C(=O)Nc3ncn(CC)n3)cn12 (single isomer, unassigned) [Compound 18, 3-ethyl-N-(1-ethyl-1,2,4-triazol-3-yl)-2-[hydroxy-phenyl-(2-pyridyl)methyl]-7-methoxy-imidazo[1,2-a]pyridine-6-carboxamide]	100 to 10000	100 to 10000	–	A
CCc1c(C(O)(c2ccccc2)c2ccn(C)n2)nc2cc(OC)c(C(=O)Nc3ncn(CC)n3)cn12 (single isomer, unassigned) [Compound 21, 3-Ethyl-2-[hydroxy-(1-methyl-1H-pyrazol-3-yl)-phenyl-methyl]-7-methoxy-imidazo[1,2-a]pyridine-6-carboxylic acid (1-ethyl-1H-[1,2,4]triazol-3-yl)-amide]	100 to 10000	–	–	A
CCc1c(C(O)(c2ccccc2)c2ccn(C)n2)nc2cc(OC)c(C(=O)Nc3ncn(CC)n3)cn12 (single isomer, unassigned) [Compound 22, 3-Ethyl-2-[hydroxy-(1-methyl-1H-pyrazol-3-yl)-phenyl-methyl]-7-methoxy-imidazo[1,2-a]pyridine-6-carboxylic acid (1-ethyl-1H-[1,2,4]triazol-3-yl)-amide]	10 to 100	10 to 100	–	A
CCc1c(C(O)(c2ccccc2F)c2ccccc2F)nn2cc(OC)c(C(=O)Nc3ncn(CC)n3)cc12 [Compound 7, 2-[Bis-(2-fluoro-phenyl)-hydroxy-methyl]-3-ethyl-6-methoxy-pyrazolo[1,5-a]pyridine-5-carboxylic acid (1-ethyl-1H-[1,2,4]triazol-3-yl)-amide]	1 to 10	1 to 10	–	A
CCc1c(C(O)(c2ccccc2)c2ccccc2)nc2cc(F)c(C(=O)Nc3cnn(CC)c3)cn12 [Compound 15, 3-Ethyl-7-fluoro-2-(hydroxy-diphenylmethyl)-imidazo[1,2-a]pyridine-6-carboxylic acid (1-ethyl-1H-pyrazol-4-yl)-amide]	10 to 100	10 to 100	–	A
CCc1c(C(O)(c2ccccc2F)c2ccccc2F)nc2cc(Cl)c(C(=O)Nc3cnn(CC)c3)cn12 [Compound 29, 2-[Bis-(2-fluoro-phenyl)-hydroxy-methyl]-7-chloro-3-ethyl-imidazo[1,2-a]pyridine-6-carboxylic acid (1-ethyl-1H-pyrazol-4-yl)-amide]	10 to 100	10 to 100	–	A
CCn1cc(NC(=O)c2cc3c(nc2OC)nc(C(O)(c2ccccc2F)c2ccccc2F)n3CC)cn1 [Compound 104, 2-[bis(2-fluorophenyl)(hydroxy)methyl]-1-ethyl-N-(1-ethyl-1H-pyrazol-4-yl)-5-methoxy-1H-imidazo[4,5-b]pyridine-6-carboxamide]	1 to 10	1 to 10	1 to 10	–
CCn1cc(NC(=O)c2cc3c(nc2C)nc(C(O)(c2ccccc2F)c2ccccc2F)n3CC)cn1 [Compound 107, 2-[bis(2-fluorophenyl)(hydroxy)methyl]-1-ethyl-N-(1-ethyl-1H-pyrazol-4-yl)-5-methyl-1H-imidazo[4,5-b]pyridine-6-carboxamide]	1 to 10	0.01 to 1	10 to 100	–

Second part, led by results:

IC50 [1] [nM]	IC50 [2] [nM]	IC50 [4] [nM]	SMILES	MNT [3]
1 to 10	10 to 100	10 to 100	CCn1c(C(O)(c2ccccc2)c2ccccc2)nc2nc(OC)c(C(=O)Nc3ncn(CCO)n3)cc21 [Compound 73, 1-ethyl-2-(hydroxydiphenylmethyl)-N-[1-(2-hydroxyethyl)-1H-1,2,4-triazol-3-yl]-5-methoxy-1H-imidazo[4,5-b]pyridine-6-carboxamide]	–
1 to 10	1 to 10	1 to 10	CCn1cnc(NC(=O)c2cc3c(nc2OC)nc(C(O)(c2ccccc2)c2ccccc2)n3CC)c1 [Compound 76, 1-ethyl-N-(1-ethyl-1H-imidazol-4-yl)-2-(hydroxydiphenylmethyl)-5-methoxy-1H-imidazo[4,5-b]pyridine-6-carboxamide]	–
1 to 10	0.01 to 1	1 to 10	CCn1ccc(NC(=O)c2cc3c(nc2Cl)nc(C(O)(c2ccccc2)c2ccccc2)n3CC)n1 [Compound 83, 5-chloro-1-ethyl-N-(1-ethyl-1H-pyrazol-3-yl)-2-(hydroxydiphenylmethyl)-1H-imidazo[4,5-b]pyridine-6-carboxamide]	–
10 to 100	1 to 10	1 to 10	CCn1cc(NC(=O)c2cc3c(nc2F)nc(C(O)(c2ccccc2)c2ccccc2)n3CC)cn1 [Compound 92, 1-ethyl-N-(1-ethyl-1H-pyrazol-4-yl)-5-fluoro-2-(hydroxydiphenylmethyl)-1H-imidazo[4,5-b]pyridine-6-carboxamide]	–
1 to 10	1 to 10	10 to 100	CCn1cnc(NC(=O)c2cc3c(nc2C)nc(C(O)(c2ccccc2)c2ccccc2)n3CC)n1 [Compound 108, 1-ethyl-N-(1-ethyl-1H-1,2,4-triazol-3-yl)-2-(hydroxydiphenylmethyl)-5-methyl-1H-imidazo[4,5-b]pyridine-6-carboxamide]	–
1 to 10	100 to 10000	100 to 10000	CCn1cnc(NC(=O)c2cnc3nc(C(O)(c4ccccc4)c4ccccc4)n(CC)c3c2)n1 [Compound 111, 1-ethyl-N-(1-ethyl-1H-1,2,4-triazol-3-yl)-2-(hydroxydiphenylmethyl)-1H-imidazo[4,5-b]pyridine-6-carboxamide]	–
